Data reported in article PMC9025810, “Interaction of Antifungal Drugs with CYP3A- and OATP1B-Mediated Venetoclax Elimination” (Pharmaceutics, 2022).

Tests used:
[1] = cited from earlier work
human CYP3A4 = molecular target: T1, human CYP3A4 (Homo sapiens, UniProt P08684); assay: Venetoclax metabolism by human recombinant CYP3A4 supersomes; format: in vitro ADME; details: 10 µM venetoclax, 40 nM CYP3A4 supersomes, 2 h
T1 construct: purchased Corning 456207
Method: The ability of human CYP3A4 to metabolize venetoclax was assessed using human CYP3A4 supersomes using standard procedures. Reactions were performed in a volume of 100 µL. […] The mixture was preincubated for 5 min at 37 °C before initiating the reaction by the addition of the NADPH regenerating system and incubating at 37 °C with continuous shaking (400 rpm). At 0 h and 2 h, a 20 µL aliquot was mixed with 20 µL methanol to terminate the reaction. The mixture was then vortexed and stored at −80 °C until analysis. Venetoclax was quantified using a validated UHPLC-MS/MS analytical method.

OATP1B1 = molecular target: T2, OATP1B1 (Homo sapiens, UniProt Q9Y6L6); assay: Radioactive uptake and membrane/intracellular fractionation in cells overexpressing OATP1B1 or vector; format: cell-based; design: expressed in transfected cells
T2 sequence (Q9Y6L6 1-691): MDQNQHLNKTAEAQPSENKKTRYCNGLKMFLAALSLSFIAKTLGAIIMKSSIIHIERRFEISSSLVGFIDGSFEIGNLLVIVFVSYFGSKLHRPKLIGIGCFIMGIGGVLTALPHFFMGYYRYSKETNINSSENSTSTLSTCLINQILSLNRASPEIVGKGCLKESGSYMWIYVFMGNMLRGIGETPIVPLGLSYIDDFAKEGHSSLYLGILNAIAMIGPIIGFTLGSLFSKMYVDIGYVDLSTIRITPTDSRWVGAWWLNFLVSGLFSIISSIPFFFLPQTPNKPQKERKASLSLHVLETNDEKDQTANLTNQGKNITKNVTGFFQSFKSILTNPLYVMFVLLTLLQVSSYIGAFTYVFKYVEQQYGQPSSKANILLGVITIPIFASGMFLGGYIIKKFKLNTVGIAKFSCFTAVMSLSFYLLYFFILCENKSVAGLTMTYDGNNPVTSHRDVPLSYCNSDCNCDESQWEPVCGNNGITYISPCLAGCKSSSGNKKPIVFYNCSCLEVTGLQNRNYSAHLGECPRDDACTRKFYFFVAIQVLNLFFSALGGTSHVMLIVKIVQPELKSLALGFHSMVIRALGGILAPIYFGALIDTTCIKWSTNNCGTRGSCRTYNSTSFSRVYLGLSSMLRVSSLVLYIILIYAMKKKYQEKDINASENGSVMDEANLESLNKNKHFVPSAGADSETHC
Method: For experiments seeking to directly determine if venetoclax is an OATP1B1 substrate, cells overexpressing OATP1B1 or VC were seeded in six-well plates in phenol red-free DMEM containing 10% FBS and doxycycline (1 µg/mL) for 24 h. […] Cells were then immediately lysed with 1 mL of 1 N NaOH for 4 h on an orbital shaker at room temperature to measure total radioactivity. Alternatively, cells were trypsinized with 200 µL of TrypLE (Thermo Fisher Scientific, Waltham, MA, USA) for 3–5 min, rinsed with 800 µL of ice-cold washing buffer, and ProteoExtract Native Membrane Protein Extraction Kits (EMD Millipore, Burlington, MA, USA) were used to separate membrane and intracellular fractions. Dissociated cells were then transferred to 1.5-mL Eppendorf tubes. For measurement of total radioactivity, cells were neutralized with 500 µL of 2 M HCl after 4 h. For measurement of total radioactivity in the membrane or intracellular fraction, cells were isolated following the manufacturer’s protocol, as we have reported previously; this procedure is based on a differential extraction procedure under non-denaturing conditions.

T1 sequence (P08684 whole entry): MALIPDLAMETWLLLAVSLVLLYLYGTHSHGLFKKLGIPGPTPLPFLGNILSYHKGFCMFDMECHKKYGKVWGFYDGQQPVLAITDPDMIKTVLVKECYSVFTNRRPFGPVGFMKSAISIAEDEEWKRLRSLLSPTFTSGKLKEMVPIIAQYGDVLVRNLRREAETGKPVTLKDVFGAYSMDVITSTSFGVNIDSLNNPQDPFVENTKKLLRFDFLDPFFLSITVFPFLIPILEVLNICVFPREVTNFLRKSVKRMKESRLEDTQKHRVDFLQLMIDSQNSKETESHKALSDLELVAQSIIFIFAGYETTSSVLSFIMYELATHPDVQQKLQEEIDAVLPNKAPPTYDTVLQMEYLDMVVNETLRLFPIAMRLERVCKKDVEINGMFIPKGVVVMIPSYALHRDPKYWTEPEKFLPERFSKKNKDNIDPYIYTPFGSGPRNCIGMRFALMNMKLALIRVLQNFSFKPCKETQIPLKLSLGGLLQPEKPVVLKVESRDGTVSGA

Amount of venetoclax in the reaction in the presence of ketoconazole (human CYP3A4; 10 µM ketoconazole): nearly unchanged
Reduction of the amount of venetoclax in the reaction (human CYP3A4; vehicle (DMSO)): 40%
Uptake in the intracellular fraction with overexpression of OATP1B1 versus vector (OATP1B1; 0.2 µM EβG or 1 µM venetoclax, 15 min): significant increases
Detectable compound associated with the membrane fraction (OATP1B1; after correction for the intracellular fraction): > 96%
Venetoclax remaining unbound (membrane-binding experiment) (OATP1B1; in vitro, cells): < 3%
Radioactivity in the membrane fraction relative to the probe substrate EβG (OATP1B1; membrane fraction, 1 µM venetoclax vs 0.2 µM EβG): > 500 fold
Detected total radioactivity relative to the probe substrate EβG (OATP1B1; whole cell lysate, cells expressing OATP1B1 or vector, 15 min): > 10 fold
SMILES: CC1(C)CCC(CN2CCN(c3ccc(C(=O)NS(=O)(=O)c4ccc(NCC5CCOCC5)c([N+](=O)[O-])c4)c(Oc4cnc5[nH]ccc5c4)c3)CC2)=C(c2ccc(Cl)cc2)C1 [Venetoclax]
Reduction of clearance in vivo ([1]; mice with a deficiency of all OATP1A and OATP1B type transporters): 60%
DDI between venetoclax and ketoconazole (increase in venetoclax exposure) ([1]; mice): ~ 3 fold
